{"source": "patent US20160076098A1", "about": "“METHODS OF DIAGNOSING AND TREATING CHRONIC PAIN” (priority 2013, published 2016)", "key": {"[1]": {"test_system": "β-endorphin", "test": "β-endorphin levels in plasma of CRPS patients before and after ketamine therapy", "type": "in vivo, human", "details": "after vs before ketamine therapy", "description": "FIG. 8 is a graph showing no significant difference in the basal (pre-treatment) plasma levels of β-endorphin between patients and healthy controls. […] Shown are β-endorphin levels in the plasma from CRPS patients (responders and non-responders to ketamine therapy) before treatment and healthy controls and in CRPS patients before and after ketamine therapy. Responders; n=11, non-responders; n=6 and control; n=5. Results represent mean±SEM. The statistical significance was calculated using one-way ANOVA*: p<0.05 relative to non-responders after treatment.\nAnalgesic pathway targets were selected for validation. Cross talk between analgesic and endocrinal systems is known (FIG. 6). Pro-opiomelanocortin (POMC) is a polypetide precursor of many peptide hormones in the hypothalamopitiutary axis, including Adrenocorticotrophic hormone (ACTH), Melanocyte stimulating hormone (MSH), and Beta-endorphin. Prohormone convertase cleaves POMC yielding important hormonal peptides ACTH, MSH, […] and β-endorphin. β-endorphin is an important member of the endogenous opioid system. Its release is important in modulation of mood, pain, inflammatory responses. Several studies have linked the expression of POMC and its daughter peptide β-endorphin to placebo effect. Non-Responders to ketamine therapy had increased expression of POMC mRNA in blood relative to the responders and healthy controls (FIG. 7). […]"}, "[2]": {"test_system": "MCP-1, IFNγ and IL-1β", "test": "Inflammatory markers in CRPS patients following ketamine treatment", "type": "in vivo, human", "details": "p<0.05", "source_text": "Additional analysis comparing miRNA profiles from responders, non-responders and 20 control subjects enabled identification of additional miRNAs."}, "[3]": {"test_system": "miRNAs in blood of CRPS patients", "details": "blood of responders, after vs before ketamine treatment", "description": "The experiments described herein were conducted in order to determine the utility of miRNAs as biomarkers for CRPS in both the effectiveness of a treatment and the severity and progression of individual cases. As presented herein, the changes in levels of 758 miRNAs were examined in blood of 19 CRPS patients before and after ketamine treatment, using Taqman low-density array cards.\nKetamine Treatment Ketamine treatment was given to the subjects by sub-anesthetic continuous intravenous administration. Infusion started at a rate of 10 mg/hr and increased in steps of 10 mg/hr at every 2 hours to a maximum of 40 mg/hr (see FIG. 4). Blood samples were collected from CRPS patients before and after ketamine treatment. miRNA Analysis\nTotal RNA was isolated from blood samples using mirVana kit (Applied Biosystems) and cDNA synthesis was performed. Levels of 758 miRNAs were analyzed by using a Taqman low-density array (TLDA) card.\nA positive fold change indicates a higher expression of the miRNA in responders, while a negative fold change indicates a lower expression of the miRNA in responders."}, "[4]": {"target": "CYP3A4 (Homo sapiens, UniProt P08684)", "sequence (P08684 whole entry)": "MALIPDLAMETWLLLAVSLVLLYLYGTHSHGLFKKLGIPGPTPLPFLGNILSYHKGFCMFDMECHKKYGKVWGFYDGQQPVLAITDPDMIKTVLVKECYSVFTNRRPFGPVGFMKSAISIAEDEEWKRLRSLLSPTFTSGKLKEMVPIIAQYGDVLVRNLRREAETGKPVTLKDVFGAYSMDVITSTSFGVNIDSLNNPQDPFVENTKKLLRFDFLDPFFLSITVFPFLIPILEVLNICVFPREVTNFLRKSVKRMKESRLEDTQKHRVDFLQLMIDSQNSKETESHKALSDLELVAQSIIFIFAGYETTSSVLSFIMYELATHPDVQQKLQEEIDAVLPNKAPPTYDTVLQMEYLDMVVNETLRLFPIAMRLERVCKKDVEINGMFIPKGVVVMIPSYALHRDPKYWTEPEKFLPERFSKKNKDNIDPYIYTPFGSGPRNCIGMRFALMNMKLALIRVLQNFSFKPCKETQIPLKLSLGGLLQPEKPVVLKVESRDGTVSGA", "details": "known route of elimination; cited from earlier work"}, "[5]": {"test_system": "RAW 264.7 cells", "test": "Exosomal RNA sequencing (NGS) of naive and LPS-stimulated RAW 264.7 cells", "type": "cell-based, mouse", "details": "exosomal transcript level after LPS stimulation of RAW 264.7 cells compared with exosomes from naive cells", "description": "RAW 264.7 cells (ATCC) and RAW-Blue cells (Invivogen) were maintained in complete culture media (1×DMEM, 10% heat inactivated FBS). For exosome collection, RAW 264.7 cells (1×10^7) were plated in 150 mm dishes with complete culture media. At 24 hr, media was replaced with exosome-depleted media (1×DMEM, 10% heat-inactivated FBS depleted of exosomes by ultracentrifugation) with or without 1 μg/ml LPS (Sigma)) and incubated overnight. Media was collected in 50 ml tubes at 24 hr for exosome purification. Human THP1 macrophages were used in some experiments.\nExosome purification from cell culture media was performed as described (McDonald et al., 2013, J Visualized Exp 2013(76):e50294). […]\nThe SOLiD whole transcriptome analysis kit protocol with the fragmentation step omitted was used to generate a cDNA library for each sample. […] RNA concentration was measured using Nanodrop 1000 (NanoDrop Technologies, Wilmington, Del.). Total RNA from 3 independent exosome purifications was pooled to obtain 4 μg exosomal RNA per library (due to a limited amount of RNA in individual preparations), analyzed for integrity using the Agilent RNA 6000 Pico Kit (RNA integrity number between 1.6 and 2.1), and gel purified. […]"}, "[6]": {"test_system": "exosomes from human serum", "test": "miRNA profiling of human serum-derived exosomes, patients with CRPS vs control subjects (TLDA cards)", "description": "Exosome purification from cell culture media was performed as described (McDonald et al., 2013, J Visualized Exp 2013(76):e50294). Centrifugation was used to remove cell debris (500×g for 10 min); the supernatant was transferred and centrifuged (16,500×g for 20 min) Cell-free supernatants were filtered (0.22 μm; VWR, Radnor, Pa.) and exosomes were pelleted by ultracentrifugation (120,000×g for 70 min) The exosomal pellet was resuspended in buffer specific to downstream experiments and vortexed 2×15 seconds. For RNA purification, RNase inhibitors were added after the first centrifugation step at 1 U/ml (RNAsin Plus; Promega, Madison, Wis.) and at all subsequent steps at 1 U/μl. […]\nTLDA microfluidic cards (Life Technologies) were used for miRNA profiling as previously described. […] For miRNAs profiled from exosomes collected from RAW 264.7 cells, significance was determined by applying a P value cutoff of 0.05 to the results of a paired-samples t test. For human exosomal miRNAs, significance was determined by applying the Benjamini-Hochberg false discovery rate correction to the results of a 2-tailed t test.\nTo determine whether exosomal miRNAs reflect the miRNA signature in whole blood of patients with CRPS, miRNAs in exosomes purified from the serum of 6 patients with CRPS and 6 healthy controls we analyzed (FIG. 38)."}, "[7]": {"details": "negative = lower expression following treatment"}}, "data": [{"molecule": "CNC1(c2ccccc2Cl)CCCCC1=O", "note": "(stereo not drawn) [ketamine]", "values": [{"measurement": "β-endorphin plasma level", "setting": "[1]; non-responders", "result": "but not the non-responders"}, {"measurement": "β-endorphin plasma level", "setting": "[1]; responders", "result": "induced an increase in β-endorphin"}, {"measurement": "IFNγ level", "setting": "[2]", "result": "decreased significantly"}, {"measurement": "IL-1β level", "setting": "[2]", "result": "decreased significantly"}, {"measurement": "MCP-1 level", "setting": "[2]", "result": "decreased significantly"}, {"measurement": "Fold change RNU44.A", "setting": "[3]; [7]", "result": "−1.80"}, {"measurement": "Fold change hsa-miR-337-3p", "setting": "[3]; [7]", "result": "−18.20"}, {"measurement": "Fold change hsa-miR-597", "setting": "[3]; [7]", "result": "−16.23"}, {"measurement": "Fold change hsa-miR-605", "setting": "[3]; [7]", "result": "−36.08"}, {"measurement": "Fold change hsa-miR-650", "setting": "[3]; positive = higher expression following treatment", "result": 8.01}, {"measurement": "Metabolism", "setting": "[4]", "result": "demethylated mostly by CYP3A4 followed by conjugation with glucuronic acid"}]}, {"molecule": "Gdf11", "values": [{"measurement": "PS/cpntrol ratio", "setting": "[5]", "result": 4.82}]}, {"molecule": "Pgcp", "values": [{"measurement": "PS/cpntrol ratio", "setting": "[5]", "result": 2.94}]}, {"molecule": "RNU48 (GAUGACCCCAGGUAACUCUGAGUGUGUCGCUGAUGCCAUCACCGCAGCGCUCUGACC; chemistry not fully specified; listed as Homo sapiens)", "values": [{"measurement": "ddct", "setting": "[6]", "result": 2.147}, {"measurement": "fold-change", "setting": "[6]", "result": "−4.429"}]}]}
